# Assay results reported in patent US20100267561A1, “HERBICIDAL PYRIDAZINONE DERIVATIVES” (priority 2007, published 2010).
# Legend:
# Assay type in all cases: in vivo
# corn (Zea mays) = experiment: Test A pre-/postemergence plant response
# Method in brief: (§1)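 Scores reflect visual plant injury relative to untreated controls on a 0–100 scale, recorded approximately 10 days after simultaneous preemergence soil spraying and postemergence spraying of one- to two-leaf seedlings grown in loam–sand.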
# [1] = system: giant foxtail (Setaria faberi); experiment: Test A pre-/postemergence plant response
# Method in brief: as §1
# [2] = system: Italian ryegrass (Lolium multiflorum); experiment: Test B pre-/postemergence plant response; conditions: Preemergence
# From the text: (§2) Seeds of plant species selected from blackgrass (Alopecurus myosuroides), downy bromegrass (Bromus tectorum), green foxtail (Setaria viridis), Italian ryegrass (Lolium multiflorum), wheat (Triticum aestivum), wild oat (Avena fatua), catchweed bedstraw (Galium aparine), bermudagrass (Cynodon dactylon), surinam grass (Brachiaria decumbens), cocklebur (Xanthium strumarium), corn (Zea mays), large crabgrass (Digitaria sanguinalis), woolly cupgrass (Eriochloa villosa), giant foxtail (Setaria faberii), goosegrass (Eleusine indica), johnsongrass (Sorghum halepense), kochia (Kochia scoparia), lambsquarters (Chenopodium album), morningglory (Ipomoea coccinea), eastern black (E.B.) nightshade (Solanum ptycanthum), yellow nutsedge (Cyperus esculentus), pigweed (Amaranthus retroflexus), common ragweed (Ambrosia elation), Russian thistle (Salsola iberica), soybean (Glycine max), common (oilseed) sunflower (Helianthus annuus), and velvetleaf (Abutilon theophrasti) were planted and treated preemergence with test chemicals formulated in a non-phytotoxic solvent mixture which included a surfactant.
# (§3) At the same time, plants selected from these crop and weed species and also winter barley (Hordeum vulgare), canarygrass (Phalaris minor), chickweed (Stellaria media) and windgrass (Apera spica-venti) were treated with postemergence applications of some of the test chemicals formulated in the same manner. Plants ranged in height from 2 to 18 cm (1- to 4-leaf stage) for postemergence treatments.
# (§4) Plant species in the flooded paddy test consisted of rice (Oryza sativa), umbrella sedge (Cyperus difformis), ducksalad (Heteranthera limosa) and barnyardgrass (Echinochloa crus-galli) grown to the 2-leaf stage for testing. At time of treatment, test pots were flooded to 3 cm above the soil surface, treated by application of test compounds directly to the paddy water, and then maintained at that water depth for the duration of the test. Treated plants and controls were maintained in a greenhouse for 13 to 15 days, after which time all species were compared to controls and visually evaluated. Plant response ratings, summarized in Table B, are based on a scale of 0 to 100 where 0 is no effect and 100 is complete control. A dash (-) response means no test result.
# [3] = system: bermudagrass (Cynodon dactylon); experiment: Test B pre-/postemergence plant response; conditions: Preemergence
# From the text: as §2, §3, §4
# [4] = system: common (oilseed) sunflower (Helianthus annuus); experiment: Test B pre-/postemergence plant response; conditions: Preemergence
# From the text: as §2, §3, §4
# [5] = system: eastern black (E.B.) nightshade (Solanum ptycanthum); experiment: Test B pre-/postemergence plant response; conditions: Preemergence
# From the text: as §2, §3, §4
# [6] = system: johnsongrass (Sorghum halepense); experiment: Test B pre-/postemergence plant response; conditions: Preemergence
# From the text: as §2, §3, §4
# soybean (Glycine max) = experiment: Test B pre-/postemergence plant response; conditions: Preemergence
# From the text: as §2, §3, §4
# [7] = system: velvetleaf (Abutilon theophrasti); experiment: Test B pre-/postemergence plant response; conditions: Preemergence; for Velvetleaf plant response rating: scale 0 to 100
# From the text: as §2, §3, §4
# [8] = system: wheat (Triticum aestivum); experiment: Test B pre-/postemergence plant response; conditions: Preemergence
# From the text: as §2, §3, §4
# [9] = system: yellow nutsedge (Cyperus esculentus); experiment: Test B pre-/postemergence plant response; conditions: Preemergence
# From the text: as §2, §3, §4
# [10] = Postemergence, 31 g ai/ha, 0 to 100 scale, 0 no effect, 100 complete control
# [11] = Postemergence, 125 g ai/ha, 0 to 100 scale, 0 no effect, 100 complete control
# [12] = Preemergence, 31 g ai/ha, 0 to 100 scale, 0 is no effect, 100 is complete control
# [13] = Preemergence, 125 g ai/ha, 0 to 100 scale (0 no effect, 100 complete control)
# [14] = 31 g ai/ha, scale 0 to 100 (0 no effect, 100 complete control)
# [15] = 31 g ai/ha, 0 to 100 scale, 0 no effect, 100 complete control
# [16] = 62 g ai/ha, 0 to 100 scale, 0 no effect, 100 complete control
smiles,measurement,setting,value
Cc1cc(-c2ccc(Cl)cc2)nn1-c1c(OS(=O)(=O)c2ccc(Cl)s2)cnn(C)c1=O [Compound 55],"Plant response rating, Corn",corn (Zea mays); [10],0
same,"Plant response rating, Corn",corn (Zea mays); [11],40
same,"Plant response rating, Corn",corn (Zea mays); [12],0
same,"Plant response rating, Corn",corn (Zea mays); [13],40
same,"Plant response rating, Foxtail, Giant",[1]; [10],20
same,"Plant response rating, Foxtail, Giant",[1]; [11],70
same,"Plant response rating, Foxtail, Giant",[1]; [12],80
same,"Plant response rating, Foxtail, Giant",[1]; [13],90
same,"Plant response rating, Ryegrass, Italian",[2]; [14],90
same,"Plant response rating, Ryegrass, Italian","[2]; 62 g ai/ha, scale 0 to 100",100
same,"Ryegrass, Italian plant response rating","[2]; 8 g ai/ha, scale 0 to 100",60
same,"Ryegrass, Italian plant response rating","[2]; 16 g ai/ha, scale 0 to 100",70
same,Bermudagrass plant response rating,"[3]; 8 g ai/ha, scale 0 to 100 (0 no effect, 100 complete control)",100
same,"Plant response rating, Bermudagrass","[3]; 16 g ai/ha, scale 0 to 100 (0 no effect, 100 complete control)",100
same,"Plant response rating, Bermudagrass",[3]; [15],100
same,"Plant response rating, Bermudagrass","[3]; 62 g ai/ha, scale 0 to 100",100
same,"Plant response rating, Sunflower",[4]; [14],0
same,"Plant response rating, Sunflower","[4]; 62 g ai/ha, scale 0 to 100",0
same,Sunflower plant response rating,"[4]; 8 g ai/ha, scale 0 to 100",0
same,Sunflower plant response rating,"[4]; 16 g ai/ha, scale 0 to 100",0
same,"Plant response rating, Nightshade, E. B.",[5]; [14],80
same,"Plant response rating, Nightshade, E. B.","[5]; 62 g ai/ha, scale 0 to 100",100
same,"Nightshade, E. B. plant response rating","[5]; 8 g ai/ha, scale 0 to 100",0
same,"Nightshade, E. B. plant response rating","[5]; 16 g ai/ha, scale 0 to 100",0
same,"Plant response rating, Johnsongrass",[6]; [15],70
same,"Plant response rating, Johnsongrass","[6]; 62 g ai/ha, scale 0 to 100",95
same,Johnsongrass plant response rating,"[6]; 8 g ai/ha, scale 0 to 100",0
same,Johnsongrass plant response rating,"[6]; 16 g ai/ha, scale 0 to 100",15
same,"Plant response rating, Soybean",soybean (Glycine max); [14],0
same,"Plant response rating, Soybean","soybean (Glycine max); 62 g ai/ha, scale 0 to 100",0
same,Soybean plant response rating,"soybean (Glycine max); 8 g ai/ha, scale 0 to 100",0
same,Soybean plant response rating,"soybean (Glycine max); 16 g ai/ha, scale 0 to 100",0
same,"Plant response rating, Velvetleaf",[7]; [14],0
same,"Plant response rating, Velvetleaf",[7]; [16],0
same,Velvetleaf plant response rating,[7]; 8 g ai/ha,0
same,Velvetleaf plant response rating,[7]; 16 g ai/ha,0
same,"Plant response rating, Wheat",[8]; [14],0
same,"Plant response rating, Wheat",[8]; [16],5
same,Wheat plant response rating,"[8]; 16 g ai/ha, scale 0 to 100",0
same,"Plant response rating, Nutsedge, Yellow",[9]; [14],0
same,"Plant response rating, Nutsedge, Yellow","[9]; 62 g ai/ha, scale 0 to 100",0
same,"Nutsedge, Yellow plant response rating","[9]; 8 g ai/ha, scale 0 to 100",0
same,"Nutsedge, Yellow plant response rating","[9]; 16 g ai/ha, scale 0 to 100",0
